Test system: KRAS PDC multicell spheroid viability
Test: Anticancer human tumor 825966-067-R-J1-PDC patient-derived colon carcinoma cell line growth inhibition [KRAS2]
Settings: for IC50: curve of first compound; for viability, T/C: stronger effect = lower value
Excerpt: Multicellular complex tumor spheroid response to RAS pathway inhibitors in combination with a targeted agents in patient-derived cell lines with oncogenic KRAS variants from multiple cancer types
A high-throughput screen of multi-cell type tumor spheroids was designed to identify active combinations of targeted small molecules and KRAS pathway inhibitors. Complex spheroids include a stromal component modeled by human endothelial cells (HUVEC) and fibroblasts modeled by human mesenchymal stem cells (MSCs). The concentration ranges selected for each drug and investigational agent were based upon clinically achievable concentrations if the clinical Cmax of the agent was known.
Compounds. The drugs and investigational agents: BI-3406 (NSC825286), BAY-293 (NSC824723), batoprotafib (TNO155; NSC825523), sotorasib (AMG 510; NSC818433), MRTX1257 (NSC819558), elimusertib (BAY 1895344; NSC800525), molibresib (GSK525762; NSC774829), temuterkib (LY3214996; NSC803410), venetoclax (NSC766270), alisertib (NSC759677), olaparib (NSC753686), talazoparib (NSC767125), erdafitinib (NSC781556), ipatasertib (NSC767898), cabozantinib (NSC761068), nintedanib (NSC756659), abemaciclib (NSC768073), docetaxel (NSC628503), trametinib (NSC758246), and sapanisertib (NSC764658) were obtained from the National Cancer Institute (NCI) Developmental Therapeutics Program Chemical Repository. The FDA-approved anticancer drug set is available from the Developmental Therapeutics Program. […] The stock solutions were prepared in dimethyl sulfoxide (DMSO, Sigma-Aldrich, St. Louis, MO, cat. D2650) at 800-fold the tested concentration and stored at -70 degrees C prior to their use. All drugs and investigational agents were tested over a range starting from a high concentration at or near the clinical Cmax and decreasing in half-log increments. If the clinical Cmax for an agent had not been determined, the highest concentration tested was 10 microM.
Cell Culture. All cells were maintained in an incubator at 37 degrees C and 5% CO2 with 95% humidity. The PDC lines were cultured according to standard operating procedures established by the NCI PDMR (https://pdmr.cancer.gov/sops/default.htm). Briefly, all PDCs were thawed and cultured in Matrigel-coated flasks prepared with a working solution of 1X Ham's F-12 nutrient mix, without supplementation (Invitrogen, Waltham, MA, cat. 11765054), 100 U/mL penicillin-streptomycin (Invitrogen, cat. 15140122), and 2.5% Matrigel (Corning Inc., Corning, NY, cat. 354248) for the first three passages. All PDCs were cultured in complete DMEM/F-12 media containing advanced DMEM/F-12 (Invitrogen, cat. 12634028), 4.9% defined fetal bovine serum, heat inactivated (HyClone Laboratories Inc., Logan, UT, cat. SH30070.03HI), 389 ng/mL hydrocortisone (Sigma-Aldrich, cat. H4001), 9.7 ng/mL human EGF recombinant protein (Invitrogen, cat. PHG0313), 23.4 microg/mL adenine (Sigma-Aldrich, cat. A2786), 97.3 U/mL penicillin-streptomycin (Invitrogen, cat. 15140122), 1.9 mM L-glutamine (Invitrogen, cat. 25030081), and 9.7 microM Y-27632 dihydrochloride (Tocris Bioscience, Bristol, United Kingdom, cat. 1254). The PDCs were cultured in complete DMEM/F12 media without 9.7 microM Y-27632 dihydrochloride for at least two passages prior to the screen. The established cell line HOP-62 was cultured in RPMI 1640 medium, HEPES (Invitrogen, cat. 22400105) with 10% defined fetal bovine serum (HyClone Laboratories Inc., cat. SH30070.03) and 2 mM L-glutamine (Invitrogen, cat. 25030081). The pooled donor HUVEC were cultured in endothelial cell growth medium 2 (PromoCell, Heidelberg, Germany, cat. C-22011) and the hMSC were cultured in mesenchymal stem cell growth medium 2 (PromoCell, cat. C-28009). For all experiments, HUVEC and hMSC were used at passages </=5, while the malignant cell lines were used at passages </=15. […]

[1] = second compound 0.1 µM, first compound 0.01 µM
[2] = second compound 0.1 µM, first compound 0.0316 µM
[3] = second compound 0.1 µM, first compound 0.1 µM
[4] = second compound 0.1 µM, first compound 0.316 µM
[5] = second compound 0.1 µM, first compound 1 µM
[6] = second compound 0.1 µM, first compound 3.16 µM
[7] = second compound 0.316 µM, first compound 0.01 µM
[8] = second compound 0.316 µM, first compound 0.0316 µM
[9] = second compound 0.316 µM, first compound 0.1 µM
[10] = second compound 0.316 µM, first compound 0.316 µM
[11] = second compound 0.316 µM, first compound 1 µM
[12] = second compound 0.316 µM, first compound 3.16 µM
[13] = second compound 1 µM, first compound 0.01 µM
[14] = second compound 1 µM, first compound 0.0316 µM
[15] = second compound 1 µM, first compound 0.1 µM
[16] = second compound 1 µM, first compound 0.316 µM
[17] = second compound 1 µM, first compound 1 µM
[18] = second compound 1 µM, first compound 3.16 µM
[19] = second compound 3.16 µM, first compound 0.01 µM
[20] = second compound 3.16 µM, first compound 0.0316 µM
[21] = second compound 3.16 µM, first compound 0.1 µM
[22] = second compound 3.16 µM, first compound 0.316 µM
[23] = second compound 3.16 µM, first compound 1 µM
[24] = second compound 3.16 µM, first compound 3.16 µM
[25] = second compound 10 µM, first compound 0.01 µM
[26] = second compound 10 µM, first compound 0.0316 µM
[27] = second compound 10 µM, first compound 0.1 µM
[28] = second compound 10 µM, first compound 0.316 µM
[29] = second compound 10 µM, first compound 1 µM
[30] = second compound 10 µM, first compound 3.16 µM
[31] = second compound 0.1 µM, first compound 10 µM
[32] = second compound 0.316 µM, first compound 10 µM
[33] = second compound 1 µM, first compound 10 µM
[34] = second compound 3.16 µM, first compound 10 µM
[35] = second compound 10 µM, first compound 10 µM
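Further: spheroids exposed to compounds for 7 days.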
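Wherever viability, T/C is given: 100% = DMSO vehicle control viability.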

Structure (SMILES) | IC50 (second compound 0.1 µM) [nM] | IC50 (second compound 0.316 µM) [nM] | IC50 (second compound 1 µM) [nM] | IC50 (second compound 3.16 µM) [nM] | IC50 (second compound 10 µM) [nM] | viability, T/C [2] [%] | viability, T/C [3] [%] | viability, T/C [4] [%] | viability, T/C [5] [%] | viability, T/C [6] [%] | viability, T/C [8] [%] | viability, T/C [9] [%] | viability, T/C [10] [%] | viability, T/C [11] [%] | viability, T/C [14] [%] | viability, T/C [15] [%] | viability, T/C [20] [%] | viability, T/C [21] [%] | viability, T/C [26] [%] | viability, T/C [27] [%] | also measured
CC(=O)OC12COC1CC(O)C1(C)C(=O)C(O)C3=C(C)C(OC(=O)C(O)C(NC(=O)OC(C)(C)C)c4ccccc4)CC(O)(C(OC(=O)c4ccccc4)C21)C3(C)C (stereo not given) + C=CC(=O)N1CCN(c2nc(=O)n(-c3c(C)ccnc3C(C)C)c3nc(-c4c(O)cccc4F)c(F)cc23)C(C)C1 | < 10 | < 10 | < 10 | < 10 | < 10 | 30.6 | 20.5 | 20.9 | 22.8 | 31.5 | 24 | 24.6 | 26 | 28.5 | 34.3 | 25.9 | 27.3 | 25.5 | 34.9 | 24.1 | viability, T/C [1]: 33.9%; viability, T/C [7]: 26.8%; viability, T/C [12]: 29.7%; viability, T/C [13]: 27.9%; viability, T/C [16]: 23.9%; viability, T/C [17]: 23.1%; viability, T/C [18]: 22.5%; viability, T/C [19]: 38.3%; viability, T/C [22]: 23.2%; viability, T/C [23]: 26.9%; viability, T/C [24]: 39.2%; viability, T/C [25]: 30.8%; viability, T/C [28]: 26.7%; viability, T/C [29]: 17.1%; viability, T/C [30]: 24.5%
CN(C)C/C=C/C(=O)Nc1cc2c(Nc3ccc(F)c(Cl)c3)ncnc2cc1O[C@H]1CCOC1 + C=CC(=O)N1CCN(c2nc(=O)n(-c3c(C)ccnc3C(C)C)c3nc(-c4c(O)cccc4F)c(F)cc23)C(C)C1 | > 100 | > 100 | > 100 | > 100 | > 100 | 94.5 | 106 |  |  |  | 103 | 117 |  |  | 99.3 | 107 | 89 | 103 | 83.5 | 84.1 | viability, T/C (second compound 0.1 µM, first compound 0.000316 µM): 104%; viability, T/C (second compound 0.1 µM, first compound 0.001 µM): 114%; viability, T/C (second compound 0.1 µM, first compound 0.00316 µM): 110%; viability, T/C [1]: 101%; viability, T/C (second compound 0.316 µM, first compound 0.000316 µM): 97.8%; viability, T/C (second compound 0.316 µM, first compound 0.001 µM): 106%; viability, T/C (second compound 0.316 µM, first compound 0.00316 µM): 91.8%; viability, T/C [7]: 101%; viability, T/C (second compound 1 µM, first compound 0.000316 µM): 110%; viability, T/C (second compound 1 µM, first compound 0.001 µM): 101%; viability, T/C (second compound 1 µM, first compound 0.00316 µM): 91.2%; viability, T/C [13]: 112%; viability, T/C (second compound 3.16 µM, first compound 0.000316 µM): 98.8%; viability, T/C (second compound 3.16 µM, first compound 0.001 µM): 64.3%; viability, T/C (second compound 3.16 µM, first compound 0.00316 µM): 93.2%; viability, T/C [19]: 107%; viability, T/C (second compound 10 µM, first compound 0.000316 µM): 86.4%; viability, T/C (second compound 10 µM, first compound 0.001 µM): 73.5%; viability, T/C (second compound 10 µM, first compound 0.00316 µM): 94.9%; viability, T/C [25]: 86.4%
COC(=O)c1ccc2c(C(=Nc3ccc(N(C)C(=O)CN4CCN(C)CC4)cc3)c3ccccc3)c(O)[nH]c2c1 + C=CC(=O)N1CCN(c2nc(=O)n(-c3c(C)ccnc3C(C)C)c3nc(-c4c(O)cccc4F)c(F)cc23)C(C)C1 | 633 | 738 | 513 | 472 | 444 | 83.3 | 88.2 | 72.2 | 35.4 | 0.37 | 76.2 | 82.6 | 77.7 | 40 | 77.3 | 75.7 | 83 | 76.4 | 71.2 | 67 | viability, T/C [31]: 0.76%; viability, T/C [12]: 0.17%; viability, T/C [32]: 0.12%; viability, T/C [16]: 85.6%; viability, T/C [17]: 9.2%; viability, T/C [18]: 0.13%; viability, T/C [33]: 0.13%; viability, T/C [22]: 71.6%; viability, T/C [23]: 9.78%; viability, T/C [24]: 1.23%; viability, T/C [34]: 0.13%; viability, T/C [28]: 68.7%; viability, T/C [29]: 5.2%; viability, T/C [30]: 0.99%; viability, T/C [35]: 0.17%
O=C(c1cc(Cc2n[nH]c(=O)c3ccccc23)ccc1F)N1CCN(C(=O)C2CC2)CC1 + C=CC(=O)N1CCN(c2nc(=O)n(-c3c(C)ccnc3C(C)C)c3nc(-c4c(O)cccc4F)c(F)cc23)C(C)C1 | > 10000 | > 10000 | > 10000 | > 10000 | > 10000 | 97.5 | 89.9 | 107 | 71.9 | 71.1 | 90.2 | 96.8 | 77.2 | 81.9 | 100 | 84.3 | 68.3 | 90.3 | 96.4 | 82.3 | viability, T/C [31]: 77.9%; viability, T/C [12]: 65.7%; viability, T/C [32]: 80.9%; viability, T/C [16]: 77.8%; viability, T/C [17]: 62.8%; viability, T/C [18]: 70.8%; viability, T/C [33]: 88.1%; viability, T/C [22]: 78.4%; viability, T/C [23]: 75.8%; viability, T/C [24]: 73.3%; viability, T/C [34]: 70.4%; viability, T/C [28]: 90.8%; viability, T/C [29]: 72%; viability, T/C [30]: 66.5%; viability, T/C [35]: 91.7%
